# According to patent US8377914B2, “Method of inducing negative chemotaxis” (Celtaxsys, Inc., priority 2008, dated 2013):
# Read-outs that look alike come from different tables or passages of the source.
# Tested on: neutrophils
# Experiment: Chemorepulsion assay of neutrophils in Neuroprobe ChemoTx plates, migrated cells quantified with Cell Titer Glo
# Assay type: cell-based, human
# Conditions: for Activity (chemorepulsive activity): screened at 3.7, 11.1, 33.3 and 100 uM
# Description: The chemorepulsive activity of idebenone, benazepril, rolipram, moxonidine, lamivudine, calcitriol, calcipotriol, loxoprofen, terbinafine, Synephrine and 6-aminoindazole was determined as follows: • 1. Prior to beginning the assay, the following were prepared: • a. 0.5% Fetal Calf Serum (FCS) in Iscove's Modified Dulbecco's Medium (IMDM) (Assay Medium) (Both from ATCC). • b. Migratory cells at a concentration of 2×10^7 cells/ml in Assay Medium. • c. The indicated dilutions of the ligand of interest in Assay Medium were prepared. • 2. The assay plates are Neuroprobe ChemoTx plates, part number 206-3 (3 um pore size) for neutrophils. • 3. The plates were removed from packaging, leaving the membrane behind. • 4. 31 μl of the following solutions were pipetted into each well: • a. For media controls and for chemorepulsion samples, Assay Medium was used. • b. For chemoattraction samples, appropriate dilution of ligand was used. • 5. A sterile needle was used to pop any and all small bubbles present in each well. • 6. The membrane was carefully placed onto the plate, starting at one side and then slowly lowering the other edge onto the plate. • 7. 29 μl of the following were pipetted onto the top of each circle: • a. For media controls and chemoattraction (CA) samples, use Assay Medium. • b. For chemorepulsion (CR) samples, use the appropriate dilution of ligand. • 8. 2 μl of cells (40,000 cells) were added to each bubble of liquid from step 7. • 9. A needle was used to pop all air bubbles. • 10. The plate was covered with the supplied lid and incubated for the desired time at 37° C. in 5% CO2. Unless otherwise indicated, the incubation time was 1 hour for neutrophils and 3 hours for T cells. For monocytes and B cells, the incubation time was 2 hours. • 11. After the desired assay time, the liquid was removed from the top of the plate using a Kimwipe. At this point, the plate was stored (with the membrane in place) for up to 2 hours at 4° C. • 12. The membrane was carefully removed from the top of the plate and discard. The plate was examined under a microscope to look for ligand crystallization, contamination and overall migration. • 13. White read plates were preloaded with 25 ul PBS. • 14. Using a multichannel pipettor, 5 ul of Cell Titer Glo (Promega # G7572) was added to each well. • 15. Using a multichannel pipettor set at 30 ul, lysed cell solution was transferred to white read plates pre-loaded with PBS. • 16. The plate was read using the BioTek Synergy4 plate reader in order to quantify the number of migrated cells.
# The calcitriol analogs listed below were screened at concentrations of 3.7, 11.1, 33.3 and 100 uM as described above for chemorepulsive activity (FIGS. 11-13).
# [1] = Homo sapiens, Neutrophil, neutrophils, 0.1 uM, replicates, read-out: fold induction of chemorepulsion over media
# [2] = Homo sapiens, Neutrophil, read-out: fold induction of chemorepulsion over media
smiles,measurement,setting,value
C=C1/C(=C\C=C2/CCC[C@]3(C)[C@@H]([C@H](C)CCCC(C)C)CC[C@@H]23)C[C@@H](O)C[C@@H]1O [1α-hydroxycholecalciferol],Activity (chemorepulsive activity),neutrophils,No activity
C=C1/C(=C\C=C2/CCC[C@]3(C)[C@@H]([C@H](C)/C=C/[C@H](C)C(C)C)CC[C@@H]23)C[C@@H](O)C[C@@H]1O [1α-hydroxyvitamin D2],Activity (chemorepulsive activity),neutrophils,No activity
Nc1ccc2c[nH]nc2c1 [6-aminoindazole],fold induction at 0.1 µM,[1],> 3
C=C1CC[C@H](O)C/C1=C/C=C1\CCC[C@]2(C)[C@@H]([C@H](C)CCCC(C)(C)O)CC[C@@H]12 [Calcefidiol],Activity (chemorepulsive activity),neutrophils,No activity
C=C1/C(=C\C=C2/CCC[C@]3(C)[C@@H]([C@H](C)/C=C/[C@@H](O)C4CC4)CC[C@@H]23)C[C@@H](O)C[C@@H]1O [Calcipotriene],Activity (chemorepulsive activity),neutrophils,Chemorepellant
"C=C1CC[C@H](O)C/C1=C/C=C1\CCC[C@]2(C)[C@@H]([C@H](C)/C=C/[C@H](C)C(C)C)CC[C@@H]12 [Vitamin D2, ergocalciferol]",Activity (chemorepulsive activity),neutrophils,Chemorepellant
"C=C1CC[C@H](O)C/C1=C/C=C1\CCC[C@]2(C)[C@@H]([C@H](C)CCCC(C)C)CC[C@@H]12 [Vitamin D3, cholecalciferol]",Activity (chemorepulsive activity),neutrophils,Chemorepellant
CCOC(=O)[C@H](CCc1ccccc1)N[C@H]1CCc2ccccc2N(CC(=O)O)C1=O [benazepril],fold induction at 0.92 µM,[2],~2
"C=C1/C(=C\C=C2/CCCC3(C)C2CCC3[C@@H](C)CCCC(C)(C)O)C[C@@H](O)CC1O (stereo partly drawn) [calcitriol, 1,25-dihydroxyvitamin D]",fold induction at 100 µM,"Homo sapiens, Neutrophil, neutrophils, 100 uM, read-out: fold induction of chemorepulsion over media",> 3
CC(C(=O)O)c1ccc(CC2CCCC2=O)cc1 (stereo not drawn) [loxoprofen],fold induction at 0.091 µM,[2],> 2
COc1nc(C)nc(Cl)c1NC1=NCCN1 [moxonidine],fold induction at 0.092 µM,"Homo sapiens, Neutrophil, neutrophils, 0.092 uM, replicates, read-out: fold induction of chemorepulsion over media",~2
same,fold induction at 9.9 µM,"Homo sapiens, Neutrophil, neutrophils, 9.9 uM, replicates, read-out: fold induction of chemorepulsion over media",> 2
"COc1ccc(C2CNC(=O)C2)cc1OC1CCCC1 (stereo not drawn) [rolipram, 4-(3-cyclopentyloxy-4-methoxy-phenyl)pyrrolidin-2-one]",fold induction at 0.1 µM,[1],2
CNCC(O)c1ccc(O)cc1 (stereo not drawn) [synephrine],fold induction at 0.1 µM,[2],> 2
"CN(C/C=C/C#CC(C)(C)C)Cc1cccc2ccccc12 [terbinafine, N,6,6-trimethyl-N-(naphthalen-1-ylmethyl)hept-2-en-4-yn-1-amine]",fold induction at 89 µM,"Homo sapiens, Neutrophil, neutrophils, 89 uM, read-out: fold induction of chemorepulsion over media",> 2.5
